Experiments:
Experiment in all cases: relative viability (nuclei count vs DMSO), 5 days (fraction); higher = more cells survive
[1] = compound: CC1CC(=O)N(C2=CN=C(N=C2N1C3CCCC3)NC4=C(C=C(C=C4)C(=O)NC5CCN(CC5)C)OC)C [NPK76-II-72-1] + C[C@]1(O)C[C@@H](c2nc(-c3ccc4ccc(-c5ccccc5)nc4c3)c3c(N)nccn32)C1 [Linsitinib] (partner 1 µM)
Summary of the method: (§1)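 A single step with final 0.05% Triton X-100, 1% formaldehyde and 1 ug/ml Hoechst fixed the cells and stained nuclei 5 days after treatment. Lung cancer cell lines in 1536-well plates had been treated by pin tool the day after seeding with one drug alone or a fixed anchor-drug dose plus five library-drug doses (not always all listed) in √10 steps, and nuclei were counted on 4× images. Relative viability is the ratio of nuclei in treated wells to nuclei in vehicle wells, taken as the median of duplicate plates.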

[2] = compound: CC1CC(=O)N(C2=CN=C(N=C2N1C3CCCC3)NC4=C(C=C(C=C4)C(=O)NC5CCN(CC5)C)OC)C [NPK76-II-72-1] + N=C(N)NC(=N)NCCc1ccccc1 [Phenformin] (partner 250 µM)
Summary of the method: as §1

BI-2536 + Luminespib = compound: CC[C@@H]1C(=O)N(C)c2cnc(Nc3ccc(C(=O)NC4CCN(C)CC4)cc3OC)nc2N1C1CCCC1 [BI-2536] + CCNC(=O)c1noc(-c2cc(C(C)C)c(O)cc2O)c1-c1ccc(CN2CCOCC2)cc1 [Luminespib] (partner 0.01 µM)
Summary of the method: as §1

NPK76-II-72-1 + OSI-027 = compound: CC1CC(=O)N(C2=CN=C(N=C2N1C3CCCC3)NC4=C(C=C(C=C4)C(=O)NC5CCN(CC5)C)OC)C [NPK76-II-72-1] + COc1cccc2cc(-c3nc([C@H]4CC[C@H](C(=O)O)CC4)n4ncnc(N)c34)[nH]c12 [OSI-027] (partner 0.5 µM)
Summary of the method: as §1

| Cell Line | relative viability ([1]; first compound 0.01 µM) | relative viability ([1]; first compound 0.03162 µM) | relative viability ([1]; first compound 0.1 µM) | relative viability ([1]; first compound 0.3162 µM) | relative viability ([1]; first compound 1 µM) | relative viability ([2]; first compound 0.01 µM) | relative viability ([2]; first compound 0.03162 µM) | relative viability ([2]; first compound 0.1 µM) | relative viability ([2]; first compound 0.3162 µM) | relative viability ([2]; first compound 1 µM) | relative viability (BI-2536 + Luminespib; first compound 0.01 µM) | relative viability (BI-2536 + Luminespib; first compound 0.03162 µM) | relative viability (BI-2536 + Luminespib; first compound 0.1 µM) | relative viability (BI-2536 + Luminespib; first compound 0.3162 µM) | relative viability (BI-2536 + Luminespib; first compound 1 µM) | relative viability (NPK76-II-72-1 + OSI-027; first compound 0.01 µM) | relative viability (NPK76-II-72-1 + OSI-027; first compound 0.03162 µM) | relative viability (NPK76-II-72-1 + OSI-027; first compound 0.1 µM) | relative viability (NPK76-II-72-1 + OSI-027; first compound 0.3162 µM) | relative viability (NPK76-II-72-1 + OSI-027; first compound 1 µM) |
| --- | --- | --- | --- | --- | --- | --- | --- | --- | --- | --- | --- | --- | --- | --- | --- | --- | --- | --- | --- | --- |
| NCI-H1395 | 1.08 | 1.17 | 1.22 | 1.13 | 1.22 | 0.466 | 0.422 | 0.457 | 0.429 | 0.405 | 0.582 | 0.605 | 0.511 | 0.361 | 0.339 | 0.633 | 0.617 | 0.677 | 0.62 | 0.695 |
| LU99A | 0.57 | 0.522 | 0.584 | 0.479 | 0.518 | 0.829 | 0.814 | 0.855 | 0.838 | 0.95 | 0.251 | 0.254 | 0.194 | 0.159 | 0.241 | 0.309 | 0.285 | 0.241 | 0.278 | 0.299 |
| NCI-H1355 | 0.844 | 0.837 | 0.809 | 0.792 | 0.848 | 0.408 | 0.458 | 0.455 | 0.45 | 0.456 | 0.612 | 0.547 | 0.546 | 0.2 | 0.187 | 0.332 | 0.421 | 0.397 | 0.384 | 0.489 |
| NCI-H1563 | 1.07 | 1.29 | 1.11 | 1.16 | 1.2 | 0.686 | 0.606 | 0.637 | 0.656 | 0.697 | 0.483 | 0.547 | 0.545 | 0.507 | 0.372 | 0.698 | 0.804 | 0.739 | 0.749 | 0.778 |
| HCC-15 | 0.85 | 0.911 | 0.952 | 0.826 | 0.953 | 0.456 | 0.564 | 0.462 | 0.444 | 0.494 | 0.265 | 0.339 | 0.144 | 0.116 | 0.134 | 0.561 | 0.774 | 0.683 | 0.579 | 0.78 |
| EKVX | 0.935 | 1.07 | 0.985 | 0.764 | 1.18 | 0.221 | 0.237 | 0.225 | 0.147 | 0.252 | 0.911 | 0.955 | 0.8 | 0.292 | 0.123 | 0.66 | 0.783 | 0.501 | 0.649 | 0.821 |
| NCI-H2087 | 1.02 | 0.996 | 0.909 | 1 | 1.11 | 0.42 | 0.543 | 0.397 | 0.398 | 0.498 | 0.161 | 0.182 | 0.139 | 0.136 | 0.157 | 0.486 | 0.644 | 0.491 | 0.513 | 0.645 |
| LK-2 | 0.543 | 0.69 | 0.729 | 0.415 | 0.743 | 0.379 | 0.583 | 0.504 | 0.206 | 0.561 | 0.184 | 0.176 | 0.155 | 0.177 | 0.176 | 0.157 | 0.227 | 0.206 | 0.201 | 0.233 |
| NCI-H1437 | 0.973 | 1.08 | 0.986 | 0.802 | 1.07 | 0.312 | 0.288 | 0.297 | 0.293 | 0.333 | 1.14 | 0.961 | 0.729 | 0.2 | 0.164 | 0.862 | 0.877 | 0.871 | 0.843 | 0.995 |
| COR-L23 | 0.869 | 0.918 | 0.898 | 0.908 | 1.04 | 0.397 | 0.453 | 0.491 | 0.434 | 0.438 | 0.668 | 0.705 | 0.171 | 0.106 | 0.122 | 0.645 | 0.858 | 0.864 | 0.775 | 0.764 |
| ABC-1 | 0.599 | 0.558 | 0.861 | 0.703 | 0.767 | 0.264 | 0.223 | 0.202 | 0.258 | 0.28 | 0.54 | 0.293 |  | 0.28 | 0.39 | 0.422 | 0.418 | 0.343 | 0.458 | 0.492 |
| NCI-H838 | 0.935 | 1.05 | 1.11 | 1.01 | 1.03 | 0.532 | 0.585 | 0.657 | 0.629 | 0.556 | 0.357 | 0.307 | 0.146 | 0.125 | 0.114 | 0.323 | 0.363 | 0.385 | 0.395 | 0.442 |
| A-427 | 1.1 | 1.09 | 1.15 | 1.14 | 1.13 | 0.263 | 0.309 | 0.341 | 0.295 | 0.397 | 0.841 | 0.829 | 0.525 | 0.144 | 0.137 | 0.497 | 0.526 | 0.452 | 0.376 | 0.434 |
| NCI-H1792 | 0.615 | 0.629 | 0.52 | 0.492 | 0.591 | 0.289 | 0.367 | 0.16 | 0.287 | 0.422 | 0.485 | 0.432 | 0.388 | 0.229 | 0.28 | 0.701 |  | 0.734 | 0.753 | 0.802 |
| LCLC-97TM1 |  | 0.16 | 0.167 | 0.192 | 0.156 | 0.401 | 0.464 | 0.388 | 0.398 | 0.416 | 0.785 | 0.641 | 0.504 | 0.14 | 0.175 | 0.479 | 0.67 | 0.407 | 0.45 | 0.577 |
| LCLC-103H | 1.04 | 1.16 | 1.02 | 1.03 | 1.01 | 0.273 | 0.363 | 0.342 | 0.329 | 0.342 | 0.95 | 1.05 | 0.842 | 0.188 | 0.184 | 0.458 | 0.41 | 0.477 | 0.439 | 0.413 |
